Assay results as given in patent publication US9226500B2, “Pesticidal compositions and processes related thereto” (Dow AgroSciences LLC, priority 2012, dated 2016).

Test system: Beet Armyworm (Spodoptera exigua)
Assay: Bioassay on Beet Armyworm (BAW), 128-well diet tray assay
Assay type: in vivo
Details: Table 3, Assays Results Part 1
Description: Certain molecules disclosed in this document were tested against BAW, CEW and CL using procedures described in the following examples. In the reporting of the results, the “BAW & CEW & CL Rating Table” was used (See Table Section).
Bioassays on BAW (Spodoptera exigua)
Bioassays on BAW were conducted using a 128-well diet tray assay. One to five second instar BAW larvae were placed in each well (3 mL) of the diet tray that had been previously filled with 1 mL of artificial diet to which 50 μg/cm^2 of the test compound (dissolved in 50 μL of 90:10 acetone-water mixture) had been applied (to each of eight wells) and then allowed to dry. Trays were covered with a clear self-adhesive cover, and held at 25° C., 14:10 light-dark for five to seven days. Percent mortality was recorded for the larvae in each well; activity in the eight wells was then averaged. The results are indicated in the tables entitled “Table 3: Assay Results Part 1” and “Table 4: Assay Results Part 2” (See Table Section).

| SMILES | BAW Rating |
| --- | --- |
| O=C(NCc1ccc(/C=C/C(c2cc(Cl)c(Cl)c(Cl)c2)C(F)(F)F)cc1Cl)C1CC1 (stereo not shown) [CC11] | A (50-100) |
| N#Cc1cc(/C=C/C(c2cc(Cl)c(Cl)c(Cl)c2)C(F)(F)F)ccc1-n1cnc(NC(=O)C2CC2)n1 (stereo not shown) [DC43, (E)-N-(1-(2-Cyano-4-(4,4,4-trifluoro-3-(3,4,5-trichlorophenyl)but-1-en-1-yl)phenyl)-1H-1,2,4-triazol-3-yl)cyclopropanecarboxamide] | A (50-100) |
| N#CCN1CCC(NC(=O)c2ccc(/C=C/C(c3cc(Cl)c(Cl)c(Cl)c3)C(F)(F)F)cc2Br)CC1 (stereo not shown) [AC107] | B (More than 0-Less than 50) |
| CCNC(=S)NCc1ccc(/C=C/C(c2cc(Cl)c(Cl)c(Cl)c2)C(F)(F)F)cc1Cl (stereo not shown) [CC37, (E)-1-(2-Chloro-4-(4,4,4-trifluoro-3-(3,4,5-trichlorophenyl)but-1-en-1-yl)benzyl)-3-ethylthiourea] | A (50-100) |
| O=C(NCc1ccc(Cl)nc1)c1ccc(/C=C/C(c2cc(Cl)c(Cl)c(Cl)c2)C(F)(F)F)cc1C(F)(F)F (stereo not shown) [AC36] | A (50-100) |
| O=C(NCc1ccc(/C=C/C(c2cc(Cl)cc(Cl)c2)C(F)(F)F)cc1)C1CC1 (stereo not shown) [CC2] | A (50-100) |
| N#Cc1cc(/C=C/C(c2cc(Cl)c(F)c(Cl)c2)C(F)(F)F)ccc1-n1cncn1 (stereo not shown) [DC35] | A (50-100) |
| O=C(CC(F)(F)F)NCc1ccc(/C=C\C(c2cc(Cl)c(Cl)c(Cl)c2)C(F)(F)F)cc1 (stereo not shown) [CC54, (Z)-3,3,3-Trifluoro-N-(4-(4,4,4-trifluoro-3-(3,4,5-trichlorophenyl)but-1-en-1-yl)benzyl)propanamide] | A (50-100) |
| Fc1cc(/C=C/C(c2cc(Cl)cc(Cl)c2)C(F)(F)F)ccc1-n1cncn1 (stereo not shown) [DC48] | A (50-100) |
| Cc1cc(/C=C/C(c2cc(Cl)cc(Cl)c2)C(F)(F)F)ccc1C(=O)NCc1nccn1C (stereo not shown) [AC50] | A (50-100) |
| Cc1cc(/C=C/C(c2cc(Cl)cc(Cl)c2)C(F)(F)F)ccc1C(=O)N(C)Cc1ccc(Cl)nc1 (stereo not shown) [AC117] | A (50-100) |
| Cc1cc(/C=C/C(c2cc(Cl)cc(Cl)c2)C(F)(F)F)ccc1C(=O)Nc1ccc(Cl)nc1 (stereo not shown) [AC59] | A (50-100) |
| Cc1cc(/C=C/C(c2cc(Cl)cc(Cl)c2)C(F)(F)F)ccc1C(=O)NCc1ccc(Cl)nc1 (stereo not shown) [AC7] | A (50-100) |
| CCc1cc(/C=C/C(c2cc(Cl)c(F)c(Cl)c2)C(F)(F)F)ccc1C(=O)NC1CS(=O)(=O)C1 (stereo not shown) [AC86] | A (50-100) |
| O=C(NC1CSC1)c1ccc(/C=C/C(c2cc(Cl)c(Cl)c(Cl)c2)C(F)(F)F)cc1Cl (stereo not shown) [AC29] | A (50-100) |
| Cc1cc(/C=C/C(c2cc(Cl)cc(Cl)c2)C(F)(F)F)ccc1C(=O)NCc1ccccc1 (stereo not shown) [AC11] | A (50-100) |
| C=CCNC(=S)NCc1ccc(/C=C/C(c2cc(Cl)c(Cl)c(Cl)c2)C(F)(F)F)cc1Cl (stereo not shown) [CC38] | A (50-100) |
| COC(/C=C/c1ccc(-n2cncn2)cc1)(c1cc(Cl)cc(Cl)c1)C(F)(F)F (stereo not shown) [DC70, (E)-1-(4-(3-(3,5-Dichlorophenyl)-4,4,4-trifluoro-3-methoxybut-1-en-1-yl)phenyl)-1H-1,2,4-triazole] | A (50-100) |
| Cc1cc(/C=C\C(c2cc(Cl)cc(Cl)c2)C(F)(F)F)ccc1C(=O)NCC(=O)NC1CC1 (stereo not shown) [AC93] | A (50-100) |
| O=C(NOc1ccc(/C=C/C(c2cc(Cl)c(Cl)c(Cl)c2)C(F)(F)F)cc1)C1CC1 (stereo not shown) [CC52, (E)-N-(4-(4,4,4-Trifluoro-3-(3,4,5-trichlorophenyl)but-1-en-1-yl)phenoxy)cyclopropanecarboxamide] | A (50-100) |
| O=C(NCc1ccc(/C=C/C(c2cc(Cl)c(Cl)c(Cl)c2)C(F)(F)F)cc1Cl)N1CCOCC1 (stereo not shown) [CC34] | A (50-100) |
| FC(F)(F)C(/C=C/c1ccc(-n2cncn2)c(Cl)c1)c1cc(Cl)cc(Cl)c1 (stereo not shown) [DC50] | A (50-100) |
| O=C(NC1CS(=O)(=O)C1)c1ccc(/C=C/C(c2cc(Cl)c(F)c(Cl)c2)C(F)(F)F)cc1F (stereo not shown) [AC84] | A (50-100) |

| SMILES | BAW Rating |
| --- | --- |
| Cc1cc(/C=C/C(c2cc(Cl)cc(Cl)c2)C(F)(F)F)ccc1-n1cncn1 (stereo not shown) [DC62] | A (50-100) |
| CCc1cc(/C=C/C(c2cc(Cl)c(F)c(Cl)c2)C(F)(F)F)ccc1C(=O)NCc1ccc(Cl)nc1 (stereo not shown) [AC72] | A (50-100) |
| O=C(NC1CSC1)c1ccc(/C=C/C(c2cc(Cl)c(Cl)c(Cl)c2)C(F)(F)F)cc1Br (stereo not shown) [AC32] | A (50-100) |
| O=C(NC1CS(=O)(=O)C1)c1ccc(/C=C/C(c2cc(Cl)c(Cl)c(Cl)c2)C(F)(F)F)cc1C(F)(F)F (stereo not shown) [AC35] | A (50-100) |
| Cc1cc(/C=C/C(c2cc(Cl)cc(Cl)c2)C(F)(F)F)ccc1C(=O)NCc1cncnc1 (stereo not shown) [AC39, 4-((E)-3-(3,5-Dichlorophenyl)-4,4,4-trifluorobut-1-enyl)-2-methyl-N-((pyrimidin-5-yl)methyl)benzamide] | A (50-100) |
| Fc1ccc(C(/C=C/c2ccc(-n3cncn3)cc2)C(F)(F)F)cc1 (stereo not shown) [DC7] | A (50-100) |
| CSCCC(=O)NCc1ccc(/C=C/C(c2cc(Cl)c(Cl)c(Cl)c2)C(F)(F)F)cc1Cl (stereo not shown) [CC19] | A (50-100) |
| CCC(=O)NCc1ccc(/C=C/C(c2cc(Cl)cc(Cl)c2)C(F)(F)F)cc1 (stereo not shown) [CC4] | A (50-100) |
| O=C(Cc1ccc(Cl)nc1)NCc1ccc(/C=C/C(c2cc(Cl)c(Cl)c(Cl)c2)C(F)(F)F)cc1Cl (stereo not shown) [CC14] | A (50-100) |
| Cc1cc(/C=C/C(c2cc(Cl)cc(Cl)c2)C(F)(F)F)ccc1C(=O)NCc1ncccn1 (stereo not shown) [AC18] | A (50-100) |
| O=C(NC1CSC1)c1ccc(/C=C/C(c2cc(Cl)c(Cl)c(Cl)c2)C(F)(F)F)cc1C(F)(F)F (stereo not shown) [AC34] | A (50-100) |
| O=C(CC(F)(F)F)NCc1ccc(/C=C/C(c2ccc(Cl)c(Cl)c2)C(F)(F)F)cc1Cl (stereo not shown) [CC18] | A (50-100) |
| O=C(NCc1ccc(Cl)nc1)c1ccc(/C=C/C(c2cc(Cl)c(F)c(Cl)c2)C(F)(F)F)cc1Br (stereo not shown) [AC63] | A (50-100) |
| O=C(CNC(=O)c1ccc(/C=C/C(c2ccc(F)c(Cl)c2)C(F)(F)F)cc1Br)NCC(F)(F)F (stereo not shown) [AC99] | A (50-100) |
| FC(F)(F)C(/C=C/c1ccc(-n2cncn2)cc1)c1ccc(Cl)c(Cl)c1 (stereo not shown) [DC12] | A (50-100) |
| N#Cc1cc(/C=C/C(c2cc(Cl)cc(Cl)c2)C(F)(F)F)ccc1-n1cnc([N+](=O)[O-])n1 (stereo not shown) [DC37] | A (50-100) |
| Cc1cc(/C=C/C(c2cc(Cl)cc(Cl)c2)C(F)(F)F)ccc1C(=O)NCC(=O)NC1CSC1 (stereo not shown) [AC41] | A (50-100) |
| O=C(NCc1ccc(/C=C/C(c2cc(Cl)c(F)c(Cl)c2)C(F)(F)F)cc1Cl)C1CC1 (stereo not shown) [CC15] | A (50-100) |
| CC(C)(C)OC(=O)CNC(=O)c1ccc(/C=C/C(c2cc(Cl)c(Cl)c(Cl)c2)C(F)(F)F)cc1Br (stereo not shown) [AC58] | A (50-100) |
| FC(F)(F)C(/C=C/c1ccc(CNC(=S)C2CC2)c(Cl)c1)c1cc(Cl)c(Cl)c(Cl)c1 (stereo not shown) [CC20] | A (50-100) |
| O=C(NCc1ccc(/C=C/C(c2cc(Cl)c(Cl)c(Cl)c2)C(F)(F)F)cc1C(F)(F)F)C1CC1 (stereo not shown) [CC22] | A (50-100) |
| Cc1cc(/C=C/C(c2cc(Cl)c(Cl)c(Cl)c2)C(F)(F)F)ccc1C(=O)NCc1cnc(Cl)s1 (stereo not shown) [AC26] | A (50-100) |
| O=C(NCc1ccc(Cl)nc1)c1ccc(/C=C/C(c2cc(Cl)cc(Cl)c2)C(F)(F)F)cc1F (stereo not shown) [AC49] | A (50-100) |
